Assay: xn = mol fraction of the nth substance listed
Settings: 100 kPa

CC[n+]1ccn(C)c1.O=S(=O)([N-]S(=O)(=O)C(F)(F)F)C(F)(F)F + CC[n+]1ccn(C)c1.F[B-](F)(F)F
Settings | electrical conductivity [S/m] | viscosity [mPa·s]
243.15 K, x1 = 0.2 | 0.039 | –
243.15 K, x1 = 0.3 | 0.043 | –
243.15 K, x1 = 0.4 | 0.033 | –
243.15 K, x1 = 0.5 | 0.038 | –
243.15 K, x1 = 0.6 | 0.023 | –
243.15 K, x1 = 0.7 | 0.046 | –
243.15 K, x1 = 0.8 | 0.028 | –
243.15 K, x1 = 1 | 0.011 | –
248.15 K, x1 = 0.2 | 0.062 | –
248.15 K, x1 = 0.3 | 0.068 | –
248.15 K, x1 = 0.4 | 0.053 | –
248.15 K, x1 = 0.5 | 0.06 | –
248.15 K, x1 = 0.6 | 0.039 | –
248.15 K, x1 = 0.7 | 0.072 | –
248.15 K, x1 = 0.8 | 0.045 | –
248.15 K, x1 = 1 | 0.019 | –
253.15 K, x1 = 0.2 | 0.094 | 478
253.15 K, x1 = 0.3 | 0.102 | 485
253.15 K, x1 = 0.4 | 0.081 | 468
253.15 K, x1 = 0.5 | 0.09 | 460
253.15 K, x1 = 0.6 | 0.061 | –
253.15 K, x1 = 0.7 | 0.107 | 435
253.15 K, x1 = 0.8 | 0.069 | 403
253.15 K, x1 = 1 | 0.031 | 350
258.15 K, x1 = 0.2 | 0.136 | –
258.15 K, x1 = 0.3 | 0.146 | –
258.15 K, x1 = 0.4 | 0.118 | –
258.15 K, x1 = 0.5 | 0.13 | –
258.15 K, x1 = 0.6 | 0.091 | –
258.15 K, x1 = 0.7 | 0.152 | –
258.15 K, x1 = 0.8 | 0.099 | –
258.15 K, x1 = 1 | 0.047 | –
263.15 K, x1 = 0.2 | 0.19 | 226
263.15 K, x1 = 0.3 | 0.202 | 229
263.15 K, x1 = 0.4 | 0.166 | 222
263.15 K, x1 = 0.5 | 0.18 | 220
263.15 K, x1 = 0.6 | 0.131 | –
263.15 K, x1 = 0.7 | 0.208 | 208
263.15 K, x1 = 0.8 | 0.138 | 193
263.15 K, x1 = 1 | 0.07 | 173
268.15 K, x1 = 0.2 | 0.255 | –
268.15 K, x1 = 0.3 | 0.27 | –
268.15 K, x1 = 0.4 | 0.226 | –
268.15 K, x1 = 0.5 | 0.242 | –
268.15 K, x1 = 0.6 | 0.18 | –
268.15 K, x1 = 0.7 | 0.276 | –
268.15 K, x1 = 0.8 | 0.186 | –
268.15 K, x1 = 1 | 0.099 | –
273.15 K, x1 = 0.2 | 0.334 | 122
273.15 K, x1 = 0.3 | 0.351 | 124
273.15 K, x1 = 0.4 | 0.298 | 120
273.15 K, x1 = 0.5 | 0.316 | 120
273.15 K, x1 = 0.6 | 0.241 | –
273.15 K, x1 = 0.7 | 0.357 | 114
273.15 K, x1 = 0.8 | 0.243 | 105
273.15 K, x1 = 1 | 0.135 | 96.5
278.15 K, x1 = 0.2 | 0.427 | –
278.15 K, x1 = 0.3 | 0.445 | –
278.15 K, x1 = 0.4 | 0.383 | –
278.15 K, x1 = 0.5 | 0.403 | –
278.15 K, x1 = 0.6 | 0.314 | –
278.15 K, x1 = 0.7 | 0.452 | –
278.15 K, x1 = 0.8 | 0.31 | –
278.15 K, x1 = 1 | 0.179 | –
283.15 K, x1 = 0.2 | 0.533 | 72.6
283.15 K, x1 = 0.3 | 0.553 | 74
283.15 K, x1 = 0.4 | 0.481 | 72.4
283.15 K, x1 = 0.5 | 0.503 | 72.1
283.15 K, x1 = 0.6 | 0.4 | –
283.15 K, x1 = 0.7 | 0.559 | 69.1
283.15 K, x1 = 0.8 | 0.388 | 63.8
283.15 K, x1 = 1 | 0.232 | 59.3
288.15 K, x1 = 0.2 | 0.654 | –
288.15 K, x1 = 0.3 | 0.674 | –
288.15 K, x1 = 0.4 | 0.594 | –
288.15 K, x1 = 0.5 | 0.617 | –
288.15 K, x1 = 0.6 | 0.499 | –
288.15 K, x1 = 0.7 | 0.68 | –
288.15 K, x1 = 0.8 | 0.475 | –
288.15 K, x1 = 1 | 0.294 | –
293.15 K, x1 = 0.2 | 0.79 | 46.7
293.15 K, x1 = 0.3 | 0.81 | 47.9
293.15 K, x1 = 0.4 | 0.721 | 47
293.15 K, x1 = 0.5 | 0.744 | 47
293.15 K, x1 = 0.6 | 0.612 | –
293.15 K, x1 = 0.7 | 0.815 | 45.3
293.15 K, x1 = 0.8 | 0.574 | 41.7
293.15 K, x1 = 1 | 0.365 | 39.2
298.15 K, x1 = 0.2 | 0.939 | –
298.15 K, x1 = 0.3 | 0.958 | –
298.15 K, x1 = 0.4 | 0.862 | –
298.15 K, x1 = 0.5 | 0.885 | –
298.15 K, x1 = 0.6 | 0.738 | –
298.15 K, x1 = 0.7 | 0.963 | –
298.15 K, x1 = 0.8 | 0.682 | –
298.15 K, x1 = 1 | 0.447 | –
303.15 K, x1 = 0.2 | – | 32
303.15 K, x1 = 0.3 | – | 33
303.15 K, x1 = 0.4 | – | 32.5
303.15 K, x1 = 0.5 | – | 32.5
303.15 K, x1 = 0.7 | – | 31.5
303.15 K, x1 = 0.8 | – | 29
303.15 K, x1 = 1 | – | 27.4
313.15 K, x1 = 0.2 | – | 23
313.15 K, x1 = 0.3 | – | 23.9
313.15 K, x1 = 0.4 | – | 23.6
313.15 K, x1 = 0.5 | – | 23.6
313.15 K, x1 = 0.7 | – | 23
313.15 K, x1 = 0.8 | – | 21.1
313.15 K, x1 = 1 | – | 20.1
323.15 K, x1 = 0.2 | – | 17.3
323.15 K, x1 = 0.3 | – | 18
323.15 K, x1 = 0.4 | – | 17.8
323.15 K, x1 = 0.5 | – | 17.8
323.15 K, x1 = 0.7 | – | 17.5
323.15 K, x1 = 0.8 | – | 16
323.15 K, x1 = 1 | – | 15.3
333.15 K, x1 = 0.2 | – | 13.4
333.15 K, x1 = 0.3 | – | 14.1
333.15 K, x1 = 0.4 | – | 13.9
333.15 K, x1 = 0.5 | – | 13.9
333.15 K, x1 = 0.7 | – | 13.8
333.15 K, x1 = 0.8 | – | 12.6
333.15 K, x1 = 1 | – | 12.1
